Experimental data reported in patent publication US20260027116A1, “Methods of Treating Chronic Graft-Versus-Host Disease Following Allogeneic Hematopoietic Stem Cell Transplantation” (Kadmon Corporation, LLC, priority 2022, published 2026).
“Also recorded” adds a separate entry of the source. Read-outs that look alike come from different tables or passages of the source.

Test system: patients with cGVHD

Structure (SMILES): CC(C)NC(=O)COc1cccc(-c2nc(Nc3ccc4[nH]ncc4c3)c3ccccc3n2)c1 [Belumosudil, 2-{3-[4-(1H-indazol-5-ylamino)-2-quinazolinyl]phenoxy}-N-(propan-2-yl) acetamide]
- Pleural effusion: Affected/At Risk (%) (Cohort 3 400 mg QD): 1/21 (4.76%)
- Pneumonia respiratory syncytial viral: # Events (Cohort 3 400 mg QD): 0
- Pneumonia respiratory syncytial viral: Affected/At Risk (%) (Cohort 3 400 mg QD): 0/21 (0%)
- Pneumonia: # Events (Cohort 3 400 mg QD): 0
- Pneumonia: Affected/At Risk (%) (Cohort 3 400 mg QD): 0/21 (0%)
- Pollakiuria: # Events (Cohort 3 400 mg QD): 0
- Pollakiuria: Affected/At Risk (%) (Cohort 3 400 mg QD): 0/21 (0%)
- Presyncope: # Events (Cohort 3 400 mg QD): 0
- Presyncope: Affected/At Risk (%) (Cohort 3 400 mg QD): 0/21 (0%)
- Productive cough: # Events (Cohort 3 400 mg QD): 2
- Productive cough: Affected/At Risk (%) (Cohort 3 400 mg QD): 1/21 (4.76%)
- Proteinuria: # Events (Cohort 3 400 mg QD): 0
- Proteinuria: Affected/At Risk (%) (Cohort 3 400 mg QD): 0/21 (0%)
- Pruritus: # Events (Cohort 3 400 mg QD): 0
- Pruritus: Affected/At Risk (%) (Cohort 3 400 mg QD): 0/21 (0%)
- Pseudomonas infection: # Events (Cohort 3 400 mg QD): 0
- Pseudomonas infection: Affected/At Risk (%) (Cohort 3 400 mg QD): 0/21 (0%)
- Pulmonary mass: # Events (Cohort 3 400 mg QD): 1
- Pulmonary mass: Affected/At Risk (%) (Cohort 3 400 mg QD): 1/21 (4.76%)
- Pyrexia: # Events (Cohort 3 400 mg QD): 3
- Pyrexia: Affected/At Risk (%) (Cohort 3 400 mg QD): 3/21 (14.29%)
- Rash erythematous: # Events (Cohort 3 400 mg QD): 0
- Rash erythematous: Affected/At Risk (%) (Cohort 3 400 mg QD): 0/21 (0%)
- Rash maculo-papular: # Events (Cohort 3 400 mg QD): 0
- Rash maculo-papular: Affected/At Risk (%) (Cohort 3 400 mg QD): 0/21 (0%)
- Rash pustular: # Events (Cohort 3 400 mg QD): 0
- Rash pustular: Affected/At Risk (%) (Cohort 3 400 mg QD): 0/21 (0%)
- Rash: # Events (Cohort 3 400 mg QD): 1
- Rash: Affected/At Risk (%) (Cohort 3 400 mg QD): 1/21 (4.76%)
- Red blood cells urine positive: # Events (Cohort 3 400 mg QD): 0
- Red blood cells urine positive: Affected/At Risk (%) (Cohort 3 400 mg QD): 0/21 (0%)
- Renal failure: # Events (Cohort 3 400 mg QD): 0
- Renal failure: Affected/At Risk (%) (Cohort 3 400 mg QD): 0/21 (0%)
- Respiratory syncytial virus infection: # Events (Cohort 3 400 mg QD): 3
- Respiratory syncytial virus infection: Affected/At Risk (%) (Cohort 3 400 mg QD): 2/21 (9.52%)
- Respiratory tract infection fungal: # Events (Cohort 3 400 mg QD): 0
- Respiratory tract infection fungal: Affected/At Risk (%) (Cohort 3 400 mg QD): 0/21 (0%)
- Respiratory tract infection: # Events (Cohort 3 400 mg QD): 0
- Respiratory tract infection: Affected/At Risk (%) (Cohort 3 400 mg QD): 0/21 (0%)
- Restless legs syndrome: # Events (Cohort 3 400 mg QD): 0
- Restless legs syndrome: Affected/At Risk (%) (Cohort 3 400 mg QD): 0/21 (0%)
- Rosacea: # Events (Cohort 3 400 mg QD): 0
- Rosacea: Affected/At Risk (%) (Cohort 3 400 mg QD): 0/21 (0%)
- SAE, No. (%) (Cohort 3 400 mg QD): 12 (57)
- Sinus pain: # Events (Cohort 3 400 mg QD): 0
- Sinus pain: Affected/At Risk (%) (Cohort 3 400 mg QD): 0/21 (0%)
- Sinusitis: # Events (Cohort 3 400 mg QD): 1
- Sinusitis: Affected/At Risk (%) (Cohort 3 400 mg QD): 1/21 (4.76%)
- Skin abrasion: # Events (Cohort 3 400 mg QD): 2
- Skin abrasion: Affected/At Risk (%) (Cohort 3 400 mg QD): 2/21 (9.52%)
- Skin lesion: # Events (Cohort 3 400 mg QD): 0
- Skin lesion: Affected/At Risk (%) (Cohort 3 400 mg QD): 0/21 (0%)
- Skin papilloma: # Events (Cohort 3 400 mg QD): 0
- Skin papilloma: Affected/At Risk (%) (Cohort 3 400 mg QD): 0/21 (0%)
- Spinal compression fracture: # Events (Cohort 3 400 mg QD): 0
- Spinal compression fracture: Affected/At Risk (%) (Cohort 3 400 mg QD): 0/21 (0%)
- Squamous cell carcinoma of skin: # Events (Cohort 3 400 mg QD): 0
- Squamous cell carcinoma of skin: Affected/At Risk (%) (Cohort 3 400 mg QD): 0/21 (0%)
- Stomatitis: # Events (Cohort 3 400 mg QD): 1
- Stomatitis: Affected/At Risk (%) (Cohort 3 400 mg QD): 1/21 (4.76%)
- Superior vena cava syndrome: # Events (Cohort 3 400 mg QD): 0
- Superior vena cava syndrome: Affected/At Risk (%) (Cohort 3 400 mg QD): 1/21 (4.76%)
- TEAE, participants (%) (Cohort 3 400 mg QD): 20 (95%) participants
- TESAE, participants (%) (Cohort 3 400 mg QD): 13 (62%) participants
- Tachycardia: # Events (Cohort 3 400 mg QD): 2
- Tachycardia: Affected/At Risk (%) (Cohort 3 400 mg QD): 2/21 (9.52%)
- Tendonitis: # Events (Cohort 3 400 mg QD): 0
- Tendonitis: Affected/At Risk (%) (Cohort 3 400 mg QD): 0/21 (0%)
- Testicular pain: # Events (Cohort 3 400 mg QD): 0
- Testicular pain: Affected/At Risk (%) (Cohort 3 400 mg QD): 0/21 (0%)
- Testicular swelling: # Events (Cohort 3 400 mg QD): 0
- Testicular swelling: Affected/At Risk (%) (Cohort 3 400 mg QD): 0/21 (0%)
- Thoracic spinal stenosis: # Events (Cohort 3 400 mg QD): 0
- Thoracic spinal stenosis: Affected/At Risk (%) (Cohort 3 400 mg QD): 0/21 (0%)
- Thrombocytopenia: # Events (Cohort 3 400 mg QD): 1
- Thrombocytopenia: Affected/At Risk (%) (Cohort 3 400 mg QD): 1/21 (4.76%)
- Thrombocytosis: # Events (Cohort 3 400 mg QD): 0
- Thrombocytosis: Affected/At Risk (%) (Cohort 3 400 mg QD): 0/21 (0%)
- Tinea pedis: # Events (Cohort 3 400 mg QD): 0
- Tinea pedis: Affected/At Risk (%) (Cohort 3 400 mg QD): 0/21 (0%)
- Tooth fracture: # Events (Cohort 3 400 mg QD): 0
- Tooth fracture: Affected/At Risk (%) (Cohort 3 400 mg QD): 0/21 (0%)
- Total other adverse events: Affected/At Risk (%) (Cohort 3 400 mg QD): 19/21 (90.48%)
- Transfusion reaction: # Events (Cohort 3 400 mg QD): 0
- Transfusion reaction: Affected/At Risk (%) (Cohort 3 400 mg QD): 0/21 (0%)
- Tremor: # Events (Cohort 3 400 mg QD): 4
- Tremor: Affected/At Risk (%) (Cohort 3 400 mg QD): 3/21 (14.29%)
- Type 2 diabetes mellitus: # Events (Cohort 3 400 mg QD): 0
- Type 2 diabetes mellitus: Affected/At Risk (%) (Cohort 3 400 mg QD): 0/21 (0%)
- Ulcerative keratitis: # Events (Cohort 3 400 mg QD): 0
- Ulcerative keratitis: Affected/At Risk (%) (Cohort 3 400 mg QD): 0/21 (0%)
- Upper respiratory tract infection: # Events (Cohort 3 400 mg QD): 9
- Upper respiratory tract infection: Affected/At Risk (%) (Cohort 3 400 mg QD): 7/21 (33.33%)
- Upper-airway cough syndrome: # Events (Cohort 3 400 mg QD): 1
- Upper-airway cough syndrome: Affected/At Risk (%) (Cohort 3 400 mg QD): 1/21 (4.76%)
- Urinary retention: # Events (Cohort 3 400 mg QD): 0
- Urinary retention: Affected/At Risk (%) (Cohort 3 400 mg QD): 0/21 (0%)
- Urinary tract infection: # Events (Cohort 3 400 mg QD): 0
- Urinary tract infection: Affected/At Risk (%) (Cohort 3 400 mg QD): 0/21 (0%)
- Urinary tract pain: # Events (Cohort 3 400 mg QD): 1
- Urinary tract pain: Affected/At Risk (%) (Cohort 3 400 mg QD): 1/21 (4.76%)
- Urine output decreased: # Events (Cohort 3 400 mg QD): 0
- Urine output decreased: Affected/At Risk (%) (Cohort 3 400 mg QD): 0/21 (0%)
- Vascular access complication: # Events (Cohort 3 400 mg QD): 0
- Vascular access complication: Affected/At Risk (%) (Cohort 3 400 mg QD): 0/21 (0%)
- Vertigo: # Events (Cohort 3 400 mg QD): 0
- Vertigo: Affected/At Risk (%) (Cohort 3 400 mg QD): 0/21 (0%)
- Vision blurred: # Events (Cohort 3 400 mg QD): 4
- Vision blurred: Affected/At Risk (%) (Cohort 3 400 mg QD): 4/21 (19.05%)
- Vomiting: # Events (Cohort 3 400 mg QD): 4
- Vomiting: Affected/At Risk (%) (Cohort 3 400 mg QD): 4/21 (19.05%)
- Weight decreased: # Events (Cohort 3 400 mg QD): 4
- Weight decreased: Affected/At Risk (%) (Cohort 3 400 mg QD): 2/21 (9.52%)
- Weight increased: # Events (Cohort 3 400 mg QD): 4
- Weight increased: Affected/At Risk (%) (Cohort 3 400 mg QD): 1/21 (4.76%)
- White blood cell count decreased: # Events (Cohort 3 400 mg QD): 2
- White blood cell count decreased: Affected/At Risk (%) (Cohort 3 400 mg QD): 1/21 (4.76%)
- cytomegalovirus (CMV) infection or reactivation (Example 1): No cases; also recorded: no reported CMV infection or reactivation
- deaths attributed to belumosudil (Example 1): none of the deaths attributed to belumosudil
- dose response with respect to observed AEs (Example 1): no dose response
- median duration of dose interruption (Example 1): 10 days
- median duration of dose reduction (Example 1): 97 days
- patients who discontinued because of potentially drug-related AEs (Example 1): Three
- patients with dose interruptions (Example 1): 41%
- patients with dose reductions (Example 1): 9%
- tolerability (Example 1): well-tolerated
- grade ≥3 cytopenias (Example 1, N=54): 4%
- grade ≥3 dyspnea (Example 1, N=54): 13%
- grade ≥3 hyperglycemia (Example 1, N=54): 7%
- grade ≥3 hypoxia (Example 1, N=54): 7%
- grade ≥3 increased liver function tests (Example 1, N=54): 7%
- patients with a grade ≥3 AE (Example 1, N=54): Sixty-one
- patients with cough (Example 1, N=54): 22%
- patients with diarrhea (Example 1, N=54): 33%
- patients with dyspnea (Example 1, N=54): 30%
- patients with fatigue (Example 1, N=54): 33%
- patients with headache (Example 1, N=54): 24%
- patients with hypertension (Example 1, N=54): 20%
- patients with increased liver function tests (Example 1, N=54): 33%
- patients with nausea (Example 1, N=54): 33%
- patients with peripheral edema (Example 1, N=54): 24%
- patients with serious AEs (Example 1, N=54): 43%
- patients with upper respiratory infection (Example 1, N=54): 46%
- serious AE dyspnea (Example 1, N=54): 7%
- serious AE hypoxia (Example 1, N=54): 4%
- serious AE influenza-like illness (Example 1, N=54): 4%
- serious AE lung infection (Example 1, N=54): 6%
- patients who died during the study (Example 1, all in cohort 3): Four
- All grade ALT/AST increased, No. (%) (Total, N=54): 18 (33)
- All grade Cough, No. (%) (Total, N=54): 12 (22)
- All grade Diarrhea, No. (%) (Total, N=54): 18 (33)
- All grade Dyspnea, No. (%) (Total, N=54): 16 (30)
- All grade Fatigue, No. (%) (Total, N=54): 18 (33)
- All grade Headache, No. (%) (Total, N=54): 13 (24)
- All grade Hypertension, No. (%) (Total, N=54): 11 (20)
- All grade Nausea, No. (%) (Total, N=54): 18 (33)
- All grade Peripheral edema, No. (%) (Total, N=54): 13 (24)
- All grade URI, No. (%) (Total, N=54): 25 (46)
- Any AE, No. (%) (Total, N=54): 53 (98)
- Death, No. (%) (Total, N=54): 2 (4)
- Drug-related AE, No. (%) (Total, N=54): 30 (56)
- Drug-related SAE, No. (%) (Total, N=54): 0
- Grade ≥3 AE, No. (%) (Total, N=54): 33 (61)
- Grade ≥3 ALT/AST increased, No. (%) (Total, N=54): 4 (7)
- Grade ≥3 Anemia, No. (%) (Total, N=54): 3 (6)
- Grade ≥3 Dyspnea, No. (%) (Total, N=54): 7 (13)
- Grade ≥3 Hyperglycemia, No. (%) (Total, N=54): 4 (7)
- Grade ≥3 Hypoxia, No. (%) (Total, N=54): 4 (7)
- Grade ≥3 Lung infection or pneumonia, No. (%) (Total, N=54): 5 (9)
- SAE, No. (%) (Total, N=54): 23 (43)
